Our source for the IC50 values is US9718790B2, “Triazine derivative and pharmaceutical composition having an analgesic activity comprising the same” (SHIONOGI & CO., LTD., priority 2010, dated 2017).

The target of this test is human P2X3 receptor (Homo sapiens (Human), UniProt P56373). Kind of test: Evaluation of human P2X3 receptor inhibitory activity (Fluo-3 calcium fluorescence, FDSS 3000, ATP stimulation).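 Note: stimulus was 50 nM ATP with fluorescence followed for 3 min, and the response per well was peak post-ATP fluorescence divided by the reading at measurement start.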 In kind it is cell-based. The note with it: C6BU-1 cells stably expressing human P2X3 receptor, Fluo-3 fluorescence, FDSS 3000.

Molecules are shown by their SMILES.

human P2X3 receptor, sequence (P56373 whole entry): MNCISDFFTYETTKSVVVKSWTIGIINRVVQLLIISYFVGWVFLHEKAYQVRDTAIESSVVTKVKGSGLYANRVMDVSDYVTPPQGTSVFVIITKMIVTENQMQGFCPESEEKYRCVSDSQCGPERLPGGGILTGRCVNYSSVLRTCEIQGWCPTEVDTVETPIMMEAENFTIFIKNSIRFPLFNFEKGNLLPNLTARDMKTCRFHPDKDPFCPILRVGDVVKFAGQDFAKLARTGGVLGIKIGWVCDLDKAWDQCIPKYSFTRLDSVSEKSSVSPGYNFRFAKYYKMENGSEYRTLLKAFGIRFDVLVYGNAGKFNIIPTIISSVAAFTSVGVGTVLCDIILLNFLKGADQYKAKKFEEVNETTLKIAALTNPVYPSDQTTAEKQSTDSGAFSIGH

With `CCc1oc2ccc(/N=c3\[nH]c(=O)n(CCCNC(C)=O)c(=O)n3Cc3ccc(Cl)cc3)cc2c1C` [Compound I-1568], the IC50 (commonly the point on the concentration scale where inhibition reaches its midpoint) was 10 nM.

With `COC(=O)C(C)(C)Cn1c(=O)[nH]/c(=N\c2ccc3nc(C)sc3c2)n(Cc2ccc(Cl)cc2)c1=O` [Compound I-1569], the IC50 was determined as 4 nM.

For `CNC(=O)CCn1c(=O)[nH]/c(=N\c2ccc3nc(C)sc3c2)n(Cc2ccc(C)cc2)c1=O` [Compound I-1570], the IC50 was 8 nM.

On to `COC(=O)C(C)(C)Cn1c(=O)[nH]/c(=N\c2ccc3nc(C)sc3c2)n(Cc2ccc(C)cc2)c1=O` [Compound I-1571], for which the IC50 stood at 4 nM.

As for `CCc1nc2ccc(/N=c3\[nH]c(=O)n(CC(C)(C)C(=O)OC)c(=O)n3Cc3ccc(Cl)cc3)cc2s1` [Compound I-1572], the IC50 was determined as 5 nM.

Turning to `CCc1nc2ccc(/N=c3\[nH]c(=O)n(CC(C)(C)C(=O)OC)c(=O)n3Cc3ccc(C)cc3)cc2s1` [Compound I-1573], the IC50 worked out at 4 nM.

`CCc1oc2ccc(/N=c3\[nH]c(=O)n(CC(C)(C)C(=O)OC)c(=O)n3Cc3ccc(Cl)cc3)cc2c1C` [Compound I-1574]: the IC50 was found to be 18 nM.

Take `CCc1oc2ccc(/N=c3\[nH]c(=O)n(CC(C)(C)C(=O)OC)c(=O)n3Cc3ccc(C)cc3)cc2c1C` [Compound I-1575]: the IC50 amounted to 9 nM.

In the case of `Cc1nc2ccc(/N=c3\[nH]c(=O)n(CC(C)(C)C(=O)O)c(=O)n3Cc3ccc(Cl)cc3)cc2s1` [Compound I-1576], the IC50 amounted to 8 nM.

Consider `Cc1ccc(Cn2c(=O)n(CC(C)(C)C(=O)O)c(=O)[nH]/c2=N\c2ccc3nc(C)sc3c2)cc1` [Compound I-1577], for which the IC50 came out at 7 nM.

On to `CCc1nc2ccc(/N=c3\[nH]c(=O)n(CC(C)(C)C(=O)O)c(=O)n3Cc3ccc(Cl)cc3)cc2s1` [Compound I-1578], for which the IC50 is 6 nM.

Turning to `Cc1ccc(Cn2c(=O)n(C[C@H](C)CO)c(=O)[nH]/c2=N\c2ccc(CC(C)C)c(Cl)c2)cc1` [Compound I-1579], the half-maximal inhibitory concentration (IC50) is 7 nM.

On to `CCc1nc2ccc(/N=c3\[nH]c(=O)n(CC(C)(C)C(=O)O)c(=O)n3Cc3ccc(C)cc3)cc2s1` [Compound I-1580], for which the IC50 amounted to 6 nM.

For `CCc1oc2ccc(/N=c3\[nH]c(=O)n(CC(C)(C)C(=O)O)c(=O)n3Cc3ccc(Cl)cc3)cc2c1C` [Compound I-1581], the IC50 was 7 nM.

As for `CCc1oc2ccc(/N=c3\[nH]c(=O)n(CC(C)(C)C(=O)O)c(=O)n3Cc3ccc(C)cc3)cc2c1C` [Compound I-1582], the IC50 was 7 nM.

Regarding `CCn1c(C)nc2cc(/N=c3\[nH]c(=O)n([C@@H](C)[C@@H](C)C(=O)O)c(=O)n3Cc3ccc(Cl)cc3)ccc21` [Compound I-1583], the IC50 is 332 nM.

`CC(C)c1nc2ccc(/N=c3\[nH]c(=O)n([C@@H](C)[C@@H](C)C(=O)O)c(=O)n3Cc3ccc(Cl)cc3)cc2s1` [Compound I-1585]: the IC50 was 14 nM.

For the compound `C[C@@H](C(=O)O)[C@H](C)n1c(=O)[nH]/c(=N\c2ccc3nc(C4CC4)sc3c2)n(Cc2ccc(Cl)cc2)c1=O` [Compound I-1586], the IC50 worked out at 13 nM.

As for `COc1ccc2cc(/N=c3\[nH]c(=O)n([C@@H](C)[C@@H](C)C(=O)O)c(=O)n3Cc3ccc(Cl)cc3)ccc2n1` [Compound I-1587], the IC50 was found to be 38 nM.

Regarding `Cc1cc2cc(/N=c3\[nH]c(=O)n([C@@H](C)[C@@H](C)C(=O)O)c(=O)n3Cc3ccc(Cl)cc3)cc(Cl)c2o1` [Compound I-1588], the IC50 was found to be 67 nM.

With `C[C@@H](C(=O)O)[C@H](C)n1c(=O)[nH]/c(=N\c2ccc3ncsc3c2)n(Cc2ccc(Cl)cc2)c1=O` [Compound I-1589], the IC50 turned out to be 158 nM.

As for `C[C@@H](C(=O)O)[C@H](C)n1c(=O)[nH]/c(=N\c2ccc3sccc3c2)n(Cc2ccc(Cl)cc2)c1=O` [Compound I-1590], the IC50 was found to be 998 nM.

Turning to `Cc1ccc(Cn2c(=O)n(C[C@H](C)C(=O)O)c(=O)[nH]/c2=N\c2ccc(Oc3ccn(C)c(=O)c3)cc2)cc1` [Compound I-1595], the IC50 was 6 nM.

Take `O=c1[nH]/c(=N\c2ccc(Oc3cncc(F)c3)cc2)n(Cc2ccc(Cl)cc2)c(=O)n1CCCO` [Compound I-1596]: the IC50 amounted to 4 nM.

`Cc1ccc(Oc2ccc(/N=c3\[nH]c(=O)n(CCCO)c(=O)n3Cc3ccc(Cl)cc3)cc2)cn1` [Compound I-1597]: the IC50 was 4 nM.

For the compound `CCn1c(=O)[nH]/c(=N\c2ccc(Oc3ccnc(C)c3)cc2)n(Cc2ccc(Cl)cc2)c1=O` [Compound I-1598], the IC50 is 5 nM.

For the compound `Cc1cc(Oc2ccc(/N=c3\[nH]c(=O)n(CCCO)c(=O)n3Cc3ccc(Cl)cc3)cc2)ccn1` [Compound I-1599], the IC50 is 5 nM.

Regarding `CNC(=O)CCn1c(=O)[nH]/c(=N\c2ccc(Oc3ccc(O)nc3)cc2)n(Cc2ccc(Cl)cc2)c1=O` [Compound I-1600], the IC50 is 11 nM.

Consider `CNC(=O)[C@@H](C)Cn1c(=O)[nH]/c(=N\c2ccc(Oc3ccc(O)nc3)cc2)n(Cc2ccc(C)cc2)c1=O` [Compound I-1601], for which the IC50 came to 24 nM.

As for `COC(=O)Cn1c(=O)[nH]/c(=N\c2ccc3nc(C)sc3c2)n(Cc2ccc(Cl)cc2)c1=O` [Compound I-1602], the IC50 was 5 nM.

On to `Cc1nc2ccc(/N=c3\[nH]c(=O)n(C[C@H]4COC(C)(C)O4)c(=O)n3Cc3ccc(Cl)cc3)cc2s1` [Compound I-1603], for which the IC50 is 5 nM.

Take `CCc1oc2ccc(/N=c3\[nH]c(=O)n(C[C@H]4COC(C)(C)O4)c(=O)n3Cc3ccc(Cl)cc3)cc2c1C` [Compound I-1604]: the IC50 was found to be 8 nM.

As for `COC(=O)[C@@H](C)Cn1c(=O)[nH]/c(=N\c2ccc(OC3CC3)c(Cl)c2)n(Cc2ccc(C)cc2)c1=O` [Compound I-1605], the IC50 came to 18 nM.

Regarding `CCOC(=O)CCn1c(=O)[nH]/c(=N\c2ccc(OC3CC3)c(Cl)c2)n(Cc2ccc(C)cc2)c1=O` [Compound I-1606], the IC50 was found to be 15 nM.

Consider `Cc1ccc(Cn2c(=O)n(C[C@H](C)C(=O)O)c(=O)[nH]/c2=N\c2ccc(OC3CC3)c(Cl)c2)cc1` [Compound I-1607], for which the IC50 was 35 nM.

For `Cc1ccc(Cn2c(=O)n(CCC(=O)O)c(=O)[nH]/c2=N\c2ccc(OC3CC3)c(Cl)c2)cc1` [Compound I-1608], the 50% inhibitory concentration (IC50) is 100 nM.

For `CCc1oc2ccc(/N=c3\[nH]c(=O)n(CC(=O)O)c(=O)n3Cc3ccc(Cl)cc3)cc2c1C` [Compound I-1609], the IC50 was found to be 187 nM.

Consider `Cc1nc2ccc(/N=c3\[nH]c(=O)n(CC(=O)O)c(=O)n3Cc3ccc(Cl)cc3)cc2s1` [Compound I-1610], for which the IC50 was found to be 251 nM.

As for `CC(=O)NCCn1c(=O)[nH]/c(=N\c2ccc(CC(C)C)c(Cl)c2)n(Cc2ccc(Cl)cc2)c1=O` [Compound I-1611], the IC50 is 8 nM.

In the case of `CCc1nc2ccc(/N=c3\[nH]c(=O)n(CCNC(C)=O)c(=O)n3Cc3ccc(Cl)cc3)cc2s1` [Compound I-1612], the half-inhibitory concentration (IC50) is 5 nM.

Consider `CCc1nc2ccc(/N=c3\[nH]c(=O)n(CCCNC(C)=O)c(=O)n3Cc3ccc(Cl)cc3)cc2s1` [Compound I-1613], for which the IC50 came to 6 nM.

On to `CC(=O)NCCCn1c(=O)[nH]/c(=N\c2ccc(CC(C)C)c(Cl)c2)n(Cc2ccc(Cl)cc2)c1=O` [Compound I-1614], for which the IC50 is 9 nM.

Regarding `CC(=O)NCCCn1c(=O)[nH]/c(=N\c2ccc(O[C@H](C)C(F)(F)F)cc2)n(Cc2ccc(Cl)cc2)c1=O` [Compound I-1615], the IC50 stood at 12 nM.

For the compound `Cc1ccc(Cn2c(=O)n(C[C@H](C)C(N)=O)c(=O)[nH]/c2=N\c2ccc(CC(C)C)c(Cl)c2)cc1` [Compound I-1616], the IC50 was determined as 7 nM.

Take `CC(=O)NCCn1c(=O)[nH]/c(=N\c2ccc(O[C@H](C)C(F)(F)F)cc2)n(Cc2ccc(Cl)cc2)c1=O` [Compound I-1617]: the IC50 worked out at 27 nM.

As for `Cc1nc2ccc(/N=c3\[nH]c(=O)n(C[C@H](O)CO)c(=O)n3Cc3ccc(Cl)cc3)cc2s1` [Compound I-1618], the IC50 was determined as 8 nM.

Take `Cc1nc2ccc(/N=c3\[nH]c(=O)n(CCCO)c(=O)n3Cc3ccc(Cl)cc3)cc2s1` [Compound I-1619]: the IC50 was found to be 6 nM.

As to `C[C@@H](Oc1ccc(/N=c2\[nH]c(=O)n(CCCO)c(=O)n2Cc2ccc(Cl)cc2)cc1)C(F)(F)F` [Compound I-1620], the IC50 came to 14 nM.

As for `CCn1c(=O)[nH]/c(=N\c2ccc(Oc3ccnc(O)c3)cc2)n(Cc2ccc(Cl)cc2)c1=O` [Compound I-1621], the IC50 is 4 nM.

With `CCc1nc2ccc(/N=c3\[nH]c(=O)n(CCCO)c(=O)n3Cc3ccc(Cl)cc3)cc2s1` [Compound I-1622], the IC50 was 4 nM.

Take `CC[C@@H](C)Oc1ccc(/N=c2\[nH]c(=O)n(CCCO)c(=O)n2Cc2ccc(Cl)cc2)cc1Cl` [Compound I-1623]: the IC50 was 7 nM.

In the case of `CCc1oc2ccc(/N=c3\[nH]c(=O)n(C[C@H](O)CO)c(=O)n3Cc3ccc(Cl)cc3)cc2c1C` [Compound I-1624], the IC50 was determined as 8 nM.

As to `CCc1oc2ccc(/N=c3\[nH]c(=O)n(CCCO)c(=O)n3Cc3ccc(Cl)cc3)cc2c1C` [Compound I-1625], the IC50 amounted to 6 nM.

Take `CC[C@@H](C)Oc1ccc(/N=c2\[nH]c(=O)n(C[C@H](C)C(=O)O)c(=O)n2Cc2ccc(Cl)cn2)cc1Cl` [Compound I-1626]: the IC50 is 18 nM.

With `CCOC(=O)CCCn1c(=O)[nH]/c(=N\c2ccc3oc(CC)c(C)c3c2)n(Cc2ccc(C)cc2)c1=O` [Compound I-1627], the IC50 is 9 nM.

Take `O=C(O)CCn1c(=O)[nH]/c(=N\c2ccc(OCc3ccccn3)cc2)n(Cc2ccc(Cl)cc2)c1=O` [Compound I-1628]: the IC50 was 683 nM.

In the case of `CCOC(=O)CCCn1c(=O)[nH]/c(=N\c2ccc3nc(CC)sc3c2)n(Cc2ccc(C)cc2)c1=O` [Compound I-1629], the IC50 came to 4 nM.

Consider `CCc1oc2ccc(/N=c3\[nH]c(=O)n(CCCC(=O)O)c(=O)n3Cc3ccc(C)cc3)cc2c1C` [Compound I-1630], for which the IC50 was found to be 15 nM.

For the compound `CCc1nc2ccc(/N=c3\[nH]c(=O)n(CCCC(=O)O)c(=O)n3Cc3ccc(C)cc3)cc2s1` [Compound I-1631], the IC50 worked out at 8 nM.

Turning to `O=C(O)CCn1c(=O)[nH]/c(=N\c2ccc(OCc3cccnc3)cc2)n(Cc2ccc(Cl)cc2)c1=O` [Compound I-1632], the IC50 worked out at 389 nM.
